The text below walks through data of PMC4955727 (Molecular bioSystems, 2016).

Like-named read-outs stand apart in the source and are kept apart here. Some results are limits rather than exact numbers.

As usually defined, the IC50 is the concentration that inhibits the measured activity by half. For orientation: inhibition means the relative decrease from the control value, in per cent.

In data set [1] the test system is P-gp. Particulars: cited from earlier work.
The target in data set [2] is T1, P-gp (Homo sapiens, UniProt P08183). In words: Rhodamine 123 efflux assay in KB CH^R 8-5 cells. Particulars: for inhibition at 45 min, 10 µM: human, KB CH^R 8-5 cells, probe rhodamine 123 (0.5 μg/ml).
T1 sequence (P08183 whole entry): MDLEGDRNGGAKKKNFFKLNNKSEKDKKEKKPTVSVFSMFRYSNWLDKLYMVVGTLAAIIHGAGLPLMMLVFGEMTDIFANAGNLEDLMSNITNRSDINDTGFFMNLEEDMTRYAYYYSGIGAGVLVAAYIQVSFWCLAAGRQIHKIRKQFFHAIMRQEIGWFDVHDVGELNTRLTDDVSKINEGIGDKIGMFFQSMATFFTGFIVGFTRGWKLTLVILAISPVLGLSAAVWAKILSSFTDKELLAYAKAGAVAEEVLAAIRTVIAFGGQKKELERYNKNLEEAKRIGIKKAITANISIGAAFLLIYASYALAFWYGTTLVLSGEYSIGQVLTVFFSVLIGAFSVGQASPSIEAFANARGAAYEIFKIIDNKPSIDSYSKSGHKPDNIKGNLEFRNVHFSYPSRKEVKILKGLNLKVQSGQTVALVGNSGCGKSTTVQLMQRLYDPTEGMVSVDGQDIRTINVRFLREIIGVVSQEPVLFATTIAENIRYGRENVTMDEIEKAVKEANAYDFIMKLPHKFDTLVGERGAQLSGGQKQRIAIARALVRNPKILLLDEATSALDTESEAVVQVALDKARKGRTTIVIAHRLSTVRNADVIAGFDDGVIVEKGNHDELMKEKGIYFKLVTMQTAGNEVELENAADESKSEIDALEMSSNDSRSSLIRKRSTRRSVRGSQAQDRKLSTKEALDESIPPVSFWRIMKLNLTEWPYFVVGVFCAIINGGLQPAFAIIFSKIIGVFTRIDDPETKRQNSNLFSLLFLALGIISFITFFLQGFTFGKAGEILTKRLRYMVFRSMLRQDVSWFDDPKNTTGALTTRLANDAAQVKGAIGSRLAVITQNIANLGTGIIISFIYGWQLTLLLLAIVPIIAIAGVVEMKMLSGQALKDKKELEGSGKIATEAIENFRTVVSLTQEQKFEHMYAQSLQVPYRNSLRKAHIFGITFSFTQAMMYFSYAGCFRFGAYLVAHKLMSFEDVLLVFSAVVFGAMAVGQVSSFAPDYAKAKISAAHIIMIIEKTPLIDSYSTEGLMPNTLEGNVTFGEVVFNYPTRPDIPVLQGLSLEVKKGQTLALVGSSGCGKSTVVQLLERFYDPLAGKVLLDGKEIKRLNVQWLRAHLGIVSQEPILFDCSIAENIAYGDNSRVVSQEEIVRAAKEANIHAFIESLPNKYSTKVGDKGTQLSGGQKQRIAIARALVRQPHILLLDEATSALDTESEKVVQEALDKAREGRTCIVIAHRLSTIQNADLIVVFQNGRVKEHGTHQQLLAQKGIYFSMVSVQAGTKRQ
Data set [3] deals with T1, P-gp. Briefly: Calcein-AM efflux assay in KB CH^R 8-5 cells. Particulars: for P-gp efflux inhibitory activity (in words): calcein-AM and rhodamine 123 assays, 10 μM (Table 4); for inhibition at 10 min, 10 μM / inhibition at 10 µM: human, KB CH^R 8-5 cells; for inhibition at 10 µM: probe calcein-AM (0.5 μg/ml) and rhodamine 123 (0.5 μg/ml).
Where [4] appears, read: read-out: Actual IC50 (Literature) (A), ref Literature (source not given).

For the molecule `Oc1cc(O)c2c(c1)O[C@H](c1ccc(O)c(O)c1)[C@@H](O)C2` [(+)-Catechin], the IC50 in the data set on P-gp [1] (setting [4]) is 50 µM.
Take `Oc1cc(O)c2c(c1)O[C@H](c1ccc(O)c(O)c1)[C@H](O)C2` [(-)-Epicatechin]: in the data set on P-gp [1] (setting [4]), the IC50 was 0.4 µM.
Turning to `O=C(O[C@@H]1Cc2c(O)cc(O)cc2O[C@@H]1c1cc(O)c(O)c(O)c1)c1cc(O)c(O)c(O)c1` [(-)-Epigallocatechin gallate], the IC50 in the data set with P-gp [1] (setting [4]) is 43.8 µM.
On P-gp [2], `O=c1cc(-c2ccc(O)cc2)oc2cc(O)cc(O)c12` [Apigenin] returned an inhibition at 45 min, 10 µM of 35%. In addition, the IC50 with P-gp [1] (setting [4]) was 10 µM. For the same molecule, at P-gp [3], the “P-gp efflux inhibitory activity (in words)” value is reported as “low inhibitory activity” and the inhibition at 10 min, 10 μM was 39.5%.
With `O=c1cc(-c2ccccc2)oc2cc(O)c(O)c(O)c12` [Baicalein], the inhibition at 45 min, 10 µM at P-gp [2] was found to be 7.54%. The IC50 in the data set with P-gp [1] (setting [4]) is 1.5 µM. On P-gp [3], the “P-gp efflux inhibitory activity (in words)” value was “low inhibitory activity”; the inhibition at 10 min, 10 μM is 11%; the inhibition at 10 µM is no more than 15%.
For `O=c1cc(-c2ccccc2)oc2cc(O)cc(O)c12` [Chrysin], the IC50 in the data set on P-gp [1] (setting [4]) is 1.5 µM.
Regarding `COc1cc(/C=C/C(=O)CC(=O)/C=C/c2ccc(O)c(OC)c2)ccc1O` [Curcumin], the IC50 in the data set with P-gp [1] (setting [4]) is 1 µM.
For `COc1cccc2c1C(=O)c1c(O)c3c(c(O)c1C2=O)C[C@@](O)(C(C)=O)C[C@@H]3O[C@H]1C[C@H](N)[C@H](O)[C@H](C)O1` [Daunorubicin, reference compound], the IC50 in the data set with P-gp [1] (setting [4]) was 1 µM.
For `COc1cccc2c1C(=O)c1c(O)c3c(c(O)c1C2=O)C[C@@](O)(C(=O)CO)C[C@@H]3O[C@H]1C[C@H](N)[C@H](O)[C@H](C)O1` [Doxorubicin, reference compound], in the data set on P-gp [1] (setting [4]), the IC50 is 0.04 µM.
On to `Oc1cc(O)c2c(c1)O[C@H](c1cc(O)c(O)c(O)c1)[C@H](O)C2` [Epigallocatechin], for which, in the data set with P-gp [1], the IC50 is 118 µM.
For the molecule `O=C1C[C@@H](c2ccc(O)c(O)c2)Oc2cc(O)cc(O)c21` [Eriodictyol], in the data set with P-gp [1] (setting [4]), the IC50 was 50 µM.
At P-gp [2], `O=c1c(O)c(-c2ccc(O)c(O)c2)oc2cc(O)ccc12` [Fistein, Fisetin] registered an inhibition at 45 min, 10 µM of 13.1%. For the same molecule, the IC50 with P-gp [1] (setting [4]) is 16 µM. At P-gp [3], the “P-gp efflux inhibitory activity (in words)” value is “low inhibitory activity”; the inhibition at 10 min, 10 μM is 16.8%; the inhibition at 10 µM is no more than 15%.
On to `Oc1cc(O)c2c(c1)O[C@H](c1cc(O)c(O)c(O)c1)[C@@H](O)C2` [Gallocatechin], for which, in the data set on P-gp [1], the IC50 is 136 µM.
`O=c1c(-c2ccc(O)cc2)coc2cc(O)cc(O)c12` [Genistein]: in the data set on P-gp [1], the IC50 was 6.9 µM.
On to `COc1cc2c(=O)c(-c3ccc(O)cc3)coc2cc1O` [Glycitein], for which the IC50 with P-gp [1] (setting [4]) was 5.99 µM.
As for `COc1ccc([C@@H]2CC(=O)c3c(O)cc(O[C@@H]4O[C@H](CO[C@@H]5O[C@@H](C)[C@H](O)[C@@H](O)[C@H]5O)[C@@H](O)[C@H](O)[C@H]4O)cc3O2)cc1O` [Hesperidin], the Rh123 % inhibition at P-gp [2] (10 μM compound, 0.5 μg/ml rhodamine 123, 45 min, 37 °C) is given as 21.09%. For the same molecule, the IC50 in the data set on P-gp [1] (setting [4]) is 6.2 µM. For the same molecule, the “Calcein-AM Efflux % inhibition” value at P-gp [3] (10 μM compound, 0.5 μM calcein-AM, 10 min, 37 °C) was 29.58%. The “P-gp efflux inhibitory activity (in words)” value at P-gp [3] is recorded as “low inhibitory activity”.
With `COc1ccc([C@@H]2CC(=O)c3c(O)cc(O)cc3O2)cc1O` [Hesperitin], the IC50 in the data set on P-gp [1] (setting [4]) is 20 µM.
In the case of `Cc1ccc(NC(=O)c2ccc(CN3CCN(C)CC3)cc2)cc1Nc1nccc(-c2cccnc2)n1` [Imatinib, reference compound], the IC50 in the data set with P-gp [1] (setting [4]) is […].
Consider `O=c1c(O[C@@H]2O[C@H](CO)[C@@H](O)[C@H](O)[C@H]2O)c(-c2ccc(O)c(O)c2)oc2cc(O)cc(O)c12` [Isoquercitrin], for which the inhibition at 45 min, 10 µM at P-gp [2] was 18.4%. The IC50 with P-gp [1] (setting [4]) was 24.3 µM. In addition, at P-gp [3], the “P-gp efflux inhibitory activity (in words)” value is reported as “low inhibitory activity” and the inhibition at 10 min, 10 μM is 19.8%.
Molecule `O=c1c(O)c(-c2ccc(O)cc2)oc2cc(O)cc(O)c12` [Kaempferol] showed an inhibition at 45 min, 10 µM against P-gp [2] of 25.1%. The IC50 in the data set with P-gp [1] (setting [4]) is 4.8 µM. Also, on P-gp [3], the “P-gp efflux inhibitory activity (in words)” value is listed as “low inhibitory activity” and the inhibition at 10 min, 10 μM was 33.8%.
`O=c1cc(-c2ccc(O)c(O)c2)oc2cc(O)cc(O)c12` [Luteolin]: the inhibition at 45 min, 10 µM against P-gp [2] worked out at 11.5%. Also, the IC50 in the data set with P-gp [1] was 0.8 µM. At P-gp [3], the “P-gp efflux inhibitory activity (in words)” value is given as “low inhibitory activity”; the inhibition at 10 min, 10 μM is 12.6%; the inhibition at 10 µM was no more than 15%.
With `O=c1c(O)c(-c2ccc(O)cc2O)oc2cc(O)cc(O)c12` [Morin], on P-gp [2], the inhibition at 45 min, 10 µM turned out to be 40.5%. In addition, in the data set with P-gp [1] (setting [4]), the IC50 was 8.1 µM. For the same molecule, on P-gp [3], the “P-gp efflux inhibitory activity (in words)” value was “low inhibitory activity” and the inhibition at 10 min, 10 μM is 42.8%.
At P-gp [2], `O=c1c(O)c(-c2cc(O)c(O)c(O)c2)oc2cc(O)cc(O)c12` [Myricetin] had an inhibition at 45 min, 10 µM of 55.8%. Moreover, in the data set with P-gp [1] (setting [4]), the IC50 is 5.9 µM. At P-gp [3], the “P-gp efflux inhibitory activity (in words)” value is on record as “moderate inhibitory activity” and the inhibition at 10 min, 10 μM was 57.2%.
On to `O=C1C[C@@H](c2ccc(O)cc2)Oc2cc(O)cc(O)c21` [Naringenin], for which the IC50 in the data set on P-gp [1] (setting [4]) is 16 µM.
For the molecule `C[C@@H]1O[C@@H](O[C@H]2[C@H](Oc3cc(O)c4c(c3)O[C@H](c3ccc(O)cc3)CC4=O)O[C@H](CO)[C@@H](O)[C@@H]2O)[C@H](O)[C@H](O)[C@H]1O` [Naringin], the inhibition at 45 min, 10 µM against P-gp [2] is 75.6%. At P-gp [3], the “P-gp efflux inhibitory activity (in words)” value is listed as “moderate inhibitory activity” and the inhibition at 10 min, 10 μM was 70.2%.
As to `COc1cc2oc(-c3ccccc3)cc(=O)c2c(O)c1O` [Negletein], the IC50 in the data set on P-gp [1] was 6.4 µM.
As for `Cc1cn(-c2cc(NC(=O)c3ccc(C)c(Nc4nccc(-c5cccnc5)n4)c3)cc(C(F)(F)F)c2)cn1` [Nilotinib, reference compound], the IC50 in the data set with P-gp [1] (setting [4]) was […].
As to `Oc1ccc(-c2[o+]c3cc(O)cc(O)c3cc2O)cc1` [Pelargonidin], at P-gp [2], the inhibition at 45 min, 10 µM amounted to 47.2%. Also, the 50% inhibitory concentration (IC50) in the data set with P-gp [1] (setting [4]) is 14 µM. In addition, on P-gp [3], the “P-gp efflux inhibitory activity (in words)” value is reported as “moderate inhibitory activity” and the inhibition at 10 min, 10 μM is 46%.
Turning to `O=C1C[C@@H](c2ccccc2)Oc2cc(O)cc(O)c21` [Pinocembrin], the IC50 in the data set on P-gp [1] (setting [4]) was 5.8 µM.
On to `COc1cc(O)c2c(c1)O[C@H](c1ccccc1)CC2=O` [Pinostrobin], for which the IC50 in the data set with P-gp [1] (setting [4]) was 5.4 µM.
For `COc1cc(O)c2c(=O)c(-c3ccc(O)cc3)coc2c1` [Prunetin], the IC50 in the data set on P-gp [1] (setting [4]) was 6.4 µM.
`COc1cc(O)c2c(=O)c(OC)c(-c3ccc(OC)c(OC)c3)oc2c1` [Retusin] showed an inhibition at 45 min, 10 µM at P-gp [2] of 3.06%. In addition, the IC50 with P-gp [1] (setting [4]) was 12 µM. In addition, on P-gp [3], the “P-gp efflux inhibitory activity (in words)” value was “low inhibitory activity”; the inhibition at 10 min, 10 μM is 6.43%; the inhibition at 10 µM was no more than 15%.
For `Oc1ccc2c(c1)OCO2` [Sesamol], the IC50 with P-gp [1] (setting [4]) was 0.3 µM.
On to `COc1ccc(-c2oc3cc(O)cc(O)c3c(=O)c2O)cc1O` [Tamarixetin], for which the inhibition at 45 min, 10 µM against P-gp [2] is 77.2%. Moreover, the IC50 in the data set with P-gp [1] (setting [4]) is 10 µM. Also, on P-gp [3], the IC50 is 46 µM; the “P-gp efflux inhibitory activity (in words)” value is on record as “moderate inhibitory activity”; the inhibition at 10 min, 10 μM was 78.7%.
